ChEMBL document CHEMBL1148572, “1-((S)-2-aminopropyl)-1H-indazol-6-ol: a potent peripherally acting 5-HT2 receptor agonist with ocular hypotensive activity” (J Med Chem, 2006)

Experiments:
[1] = target: Adenosine receptor (Homo sapiens) (UniProt P30542+P29275+P0DMS8+P29274); assay: Inhibition of non selective binding to adenosine receptor at 1 nM; format: protein assay
[2] = target: T1, Type-1 angiotensin II receptor (Homo sapiens) (UniProt P30556); assay: Inhibition of type 1 angiotensin 2 receptor at 100 nM
T1 sequence (whole entry): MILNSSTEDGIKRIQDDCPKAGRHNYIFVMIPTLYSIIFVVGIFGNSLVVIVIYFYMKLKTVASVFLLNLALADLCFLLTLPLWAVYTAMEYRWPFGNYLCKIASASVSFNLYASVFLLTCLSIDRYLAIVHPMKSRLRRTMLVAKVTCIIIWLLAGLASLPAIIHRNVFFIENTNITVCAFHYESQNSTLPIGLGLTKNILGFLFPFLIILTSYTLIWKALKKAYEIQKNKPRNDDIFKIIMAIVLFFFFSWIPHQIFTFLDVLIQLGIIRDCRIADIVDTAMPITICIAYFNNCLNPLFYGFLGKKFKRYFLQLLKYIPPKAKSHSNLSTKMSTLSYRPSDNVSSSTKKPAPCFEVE

[3] = target: T2, Androgen receptor (Homo sapiens) (UniProt P10275); assay: Inhibition of testosterone receptor at 1 nM
T2 sequence (whole entry): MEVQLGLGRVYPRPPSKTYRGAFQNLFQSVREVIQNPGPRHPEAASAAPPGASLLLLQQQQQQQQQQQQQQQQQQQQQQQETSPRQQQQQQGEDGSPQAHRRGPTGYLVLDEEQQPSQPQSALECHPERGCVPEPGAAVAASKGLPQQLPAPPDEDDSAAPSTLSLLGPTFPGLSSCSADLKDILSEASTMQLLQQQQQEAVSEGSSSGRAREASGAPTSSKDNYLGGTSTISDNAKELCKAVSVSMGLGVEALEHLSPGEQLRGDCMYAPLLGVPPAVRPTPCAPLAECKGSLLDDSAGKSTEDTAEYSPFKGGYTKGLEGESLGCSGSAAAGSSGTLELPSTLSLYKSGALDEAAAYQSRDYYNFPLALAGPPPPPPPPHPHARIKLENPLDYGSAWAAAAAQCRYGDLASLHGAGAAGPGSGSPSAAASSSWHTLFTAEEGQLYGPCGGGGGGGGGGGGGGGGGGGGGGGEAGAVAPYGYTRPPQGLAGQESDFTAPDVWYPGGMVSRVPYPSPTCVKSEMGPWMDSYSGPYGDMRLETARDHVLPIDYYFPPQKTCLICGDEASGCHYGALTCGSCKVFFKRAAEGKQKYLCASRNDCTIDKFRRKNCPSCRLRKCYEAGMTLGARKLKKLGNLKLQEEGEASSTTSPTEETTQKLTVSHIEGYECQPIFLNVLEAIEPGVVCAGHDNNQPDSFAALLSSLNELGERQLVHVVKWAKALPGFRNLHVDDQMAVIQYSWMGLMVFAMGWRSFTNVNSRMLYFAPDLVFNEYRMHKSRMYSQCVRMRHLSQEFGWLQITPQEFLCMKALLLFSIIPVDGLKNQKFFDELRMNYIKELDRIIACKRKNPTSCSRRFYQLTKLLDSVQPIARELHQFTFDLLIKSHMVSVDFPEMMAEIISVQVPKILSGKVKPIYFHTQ

[4] = target: GABA-A receptor; agonist GABA site (Homo sapiens) (UniProt P14867+P47870+P28472+P48169+P34903+P18505+P47869+P31644+Q16445); assay: Inhibition of agonist site of GABAA receptor at 10 uM; format: functional
[5] = target: T3, B2 bradykinin receptor (Homo sapiens) (UniProt P30411); assay: Inhibition of bradykinin 2 receptor at 10 uM
T3 sequence (whole entry): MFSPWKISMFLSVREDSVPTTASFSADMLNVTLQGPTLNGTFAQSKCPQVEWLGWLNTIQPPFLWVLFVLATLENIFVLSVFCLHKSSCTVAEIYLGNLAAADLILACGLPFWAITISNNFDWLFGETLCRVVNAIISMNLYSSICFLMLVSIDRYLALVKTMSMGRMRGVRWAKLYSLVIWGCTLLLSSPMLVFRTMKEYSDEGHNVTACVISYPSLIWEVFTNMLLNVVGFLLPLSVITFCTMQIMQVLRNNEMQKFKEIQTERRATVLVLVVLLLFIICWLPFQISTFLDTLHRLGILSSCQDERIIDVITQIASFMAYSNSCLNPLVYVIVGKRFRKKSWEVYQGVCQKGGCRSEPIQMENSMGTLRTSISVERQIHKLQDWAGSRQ

[6] = target: T4, 5-hydroxytryptamine receptor 1A (Homo sapiens) (UniProt P08908); assay: Inhibition of forskolin activated adenylate cyclase at 1 nM; format: functional
T4 sequence (whole entry): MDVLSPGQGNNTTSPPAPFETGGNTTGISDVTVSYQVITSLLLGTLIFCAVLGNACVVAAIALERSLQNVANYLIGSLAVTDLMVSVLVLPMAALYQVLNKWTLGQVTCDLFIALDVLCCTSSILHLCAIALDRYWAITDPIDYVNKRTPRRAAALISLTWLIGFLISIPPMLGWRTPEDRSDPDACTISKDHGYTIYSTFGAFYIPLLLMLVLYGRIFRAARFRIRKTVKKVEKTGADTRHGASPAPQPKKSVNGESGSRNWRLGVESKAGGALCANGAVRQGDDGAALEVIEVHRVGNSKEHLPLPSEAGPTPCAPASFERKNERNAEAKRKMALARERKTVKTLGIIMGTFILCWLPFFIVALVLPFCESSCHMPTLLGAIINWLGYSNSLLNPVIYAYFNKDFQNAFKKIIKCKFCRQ

[7] = target: T5, monoamine oxidase A (MAO-A) (Rattus norvegicus, UniProt P21396); assay: Inhibition of monoamine oxidase A in rat brain at 1 nM; format: tissue-based
T5 sequence (P21396 whole entry): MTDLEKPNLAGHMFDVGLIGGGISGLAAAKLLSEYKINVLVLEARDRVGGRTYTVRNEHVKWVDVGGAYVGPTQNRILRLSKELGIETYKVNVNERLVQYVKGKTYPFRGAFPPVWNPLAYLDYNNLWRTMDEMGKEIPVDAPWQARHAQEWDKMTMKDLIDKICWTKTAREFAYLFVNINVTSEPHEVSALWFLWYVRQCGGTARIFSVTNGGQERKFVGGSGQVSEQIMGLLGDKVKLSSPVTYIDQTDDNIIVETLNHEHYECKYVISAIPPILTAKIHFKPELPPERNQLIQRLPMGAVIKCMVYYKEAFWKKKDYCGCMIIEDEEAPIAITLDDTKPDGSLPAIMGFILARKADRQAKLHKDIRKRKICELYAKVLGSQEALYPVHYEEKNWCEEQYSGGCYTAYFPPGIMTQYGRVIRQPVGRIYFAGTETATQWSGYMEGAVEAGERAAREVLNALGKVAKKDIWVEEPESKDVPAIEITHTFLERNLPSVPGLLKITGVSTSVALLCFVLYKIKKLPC

[8] = target: Glutamate [NMDA] receptor (Homo sapiens) (UniProt Q05586+Q12879+Q13224+O15399+O60391+Q14957+Q8TCU5); assay: Inhibition of agonist site of NMDA receptor at 1 nM; format: functional

Chain of Adenosine receptor (Homo sapiens) (P0DMS8 whole entry, looked up): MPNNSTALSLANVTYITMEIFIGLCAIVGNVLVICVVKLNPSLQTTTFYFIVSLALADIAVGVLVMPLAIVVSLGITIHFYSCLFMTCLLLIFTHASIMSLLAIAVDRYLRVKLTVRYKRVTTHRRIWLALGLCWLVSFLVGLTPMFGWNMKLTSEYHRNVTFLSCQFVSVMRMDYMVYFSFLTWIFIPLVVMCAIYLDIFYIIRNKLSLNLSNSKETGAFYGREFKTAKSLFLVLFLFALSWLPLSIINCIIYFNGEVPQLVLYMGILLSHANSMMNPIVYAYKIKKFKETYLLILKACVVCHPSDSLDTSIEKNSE
Chain of Adenosine receptor (Homo sapiens) (P29274 whole entry, looked up): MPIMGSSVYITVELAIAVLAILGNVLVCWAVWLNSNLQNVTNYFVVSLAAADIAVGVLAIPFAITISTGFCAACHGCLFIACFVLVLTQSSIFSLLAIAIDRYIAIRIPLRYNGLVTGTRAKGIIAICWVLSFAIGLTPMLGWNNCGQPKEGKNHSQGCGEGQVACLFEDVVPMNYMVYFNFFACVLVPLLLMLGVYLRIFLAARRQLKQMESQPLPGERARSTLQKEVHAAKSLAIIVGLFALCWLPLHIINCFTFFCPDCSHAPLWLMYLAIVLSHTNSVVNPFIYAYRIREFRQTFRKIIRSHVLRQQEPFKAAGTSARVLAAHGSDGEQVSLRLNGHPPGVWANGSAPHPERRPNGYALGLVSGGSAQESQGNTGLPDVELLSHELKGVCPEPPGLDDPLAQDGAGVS
Chain of Adenosine receptor (Homo sapiens) (P29275 whole entry, looked up): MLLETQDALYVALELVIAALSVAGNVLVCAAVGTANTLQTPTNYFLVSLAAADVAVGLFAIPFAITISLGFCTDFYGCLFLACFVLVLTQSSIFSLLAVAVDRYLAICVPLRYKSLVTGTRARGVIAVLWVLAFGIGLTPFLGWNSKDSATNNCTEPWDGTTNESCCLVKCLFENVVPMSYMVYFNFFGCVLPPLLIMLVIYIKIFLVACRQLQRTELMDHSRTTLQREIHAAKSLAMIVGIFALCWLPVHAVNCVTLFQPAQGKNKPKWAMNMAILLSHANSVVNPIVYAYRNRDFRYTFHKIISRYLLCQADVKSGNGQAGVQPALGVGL
Chain of Adenosine receptor (Homo sapiens) (P30542 whole entry, looked up): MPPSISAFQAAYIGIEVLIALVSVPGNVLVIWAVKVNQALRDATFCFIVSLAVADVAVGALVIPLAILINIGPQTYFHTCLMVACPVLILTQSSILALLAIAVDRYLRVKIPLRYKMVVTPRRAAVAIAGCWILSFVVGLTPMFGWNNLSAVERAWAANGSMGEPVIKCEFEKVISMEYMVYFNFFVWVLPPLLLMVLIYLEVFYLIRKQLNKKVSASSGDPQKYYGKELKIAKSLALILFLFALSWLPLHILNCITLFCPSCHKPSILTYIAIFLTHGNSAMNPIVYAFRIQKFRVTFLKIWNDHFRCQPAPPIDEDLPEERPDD

For `C[C@H](N)Cn1ncc2ccc(O)cc21`, the inhibition [1] was 11.2%, the inhibition [2] was 7.33% and the inhibition [3] was 0.47%. The inhibition [4] was 6.69%, the inhibition [5] was 0.11% and the inhibition [6] was 2.48%. It also gave an inhibition at 0.001 µM [7] of -14.4% and an inhibition [8] of 14.9%.
